Entries after “also recorded” stand apart in the source; their conditions may differ. Where a name gives a salt, the structure may show the parent alone.
System: TAC mice
Assay: Acute effect on mouse models of heart failure (TAC, single injection 5 weeks later)
Type: in vivo
Description: Transverse aortic constriction (TAC) was performed as described previously [Date, et al. (2002) The antioxidant N-2-mercaptopropionyl glycine attenuates left ventricular hypertrophy in in vivo murine pressure-overload model. J Am Coll Cardiol 39: 907-912.]. Briefly, 8- to 10-week-old mice were anesthetized with anesthetic (0.3 mg/kg of medetomidine, 4.0 mg/kg of midazolam, and 5.0 mg/kg of butorphanol) administered intraperitoneally, and the proximal portion of the sternum was cut open to visualize the aorta. A 7-0 silk suture was placed around the aortic arch distal to the brachiocephalic artery. The suture was tightened firmly around a blunt 26-gauge needle placed adjacent to the aorta. The needle was then removed, and the chest and overlying skin were closed. Sham-operated mice underwent an identical surgical procedure without ligation of the aortic arch. At the end of the operation, 0.3 mg/kg of atipamezole was administered subcutaneously to reverse medetomidine. FIG. 1 is a schematic diagram of TAC.
To analyze the cardiac function, we used Vevo® 2100 (VISUALSONICS) at the indicated time points after TAC operation. Mice were kept under inhalation anesthesia with 2.5% isoflurane. LV function was measured in M mode of the parasternal short-axis view.
Mice were subjected to TAC at 8 weeks of age. Five weeks later (at 13 weeks of age), the mice were injected with KUS121 (50 mg/kg), and left ventricular ejection fraction (LVEF), left ventricular end-diastolic diameter (LVDd), and heart rate (HR) were assessed by echocardiography before and 10 minutes after the injection.
Mice were subjected to TAC at 8 weeks of age. Five weeks later (at 13 weeks of age), the mice were injected with KUS121 (50 mg/kg), and left ventricular pressure was measured by catheterization before and 10 minutes after the injection. The left ventricular pressure was 46.6 mmHg before KUS121 administration, and increased to 128.9 mmHg 10 minutes after the administration. In addition, Max/min dp/dt was changed from 1295.5/−621.4 mmHg/s to 3972.8/−1311.1 mmHg/s. […] Left ventricular ejection fraction was then measured over time and was 37% before KUS121 administration, increased to 67% 5 minutes after the administration, and returned to the baseline about 2 hours after the administration (FIG. 16).
Mice were subjected to TAC at 8 weeks of age. Five weeks later (at 13 weeks of age), the mice were injected with KUS187 (50 mg/kg), and left ventricular ejection fraction was assessed by echocardiography before and 10 minutes after the injection.

[1] = TAC mice 5 weeks after TAC, 50 mg/kg, echocardiography before and 10 minutes after injection

Cc1cc(F)ccc1-c1ccc(/N=N/c2cc(S(=O)(=O)O)c3ccccc3c2N)cn1 [KUS121, 4-amino-3-[6-(4-fluoro-2-methylphenyl)pyridine-3-ylazo]naphthalene-1-sulfonic acid sodium salt]
left ventricular ejection fraction (5 minutes after 50 mg/kg, 37% before administration): 67%
heart rate (HR) (TAC mice 5 weeks after TAC, 50 mg/kg, before and 10 minutes after injection, sodium salt, 50 mg/kg): without significantly affecting heart rate; also recorded: without affecting HR
left ventricular ejection fraction (LVEF) [1]: Recoveries
left ventricular end-diastolic diameter (LVDd) [1]: Recoveries
time after administration at which left ventricular ejection fraction returned to the baseline (TAC mice, 50 mg/kg, LVEF measured over time): about 2 hours
left ventricular pressure (catheterization, 10 minutes after 50 mg/kg, 46.6 mmHg before administration): 128.9 mmHg
Max dp/dt (catheterization, 10 minutes after 50 mg/kg, 1295.5 mmHg/s before administration): 3972.8 mmHg/s
min dp/dt (catheterization, 10 minutes after 50 mg/kg, −621.4 mmHg/s before administration): −1311.1 mmHg/s
